“Also recorded” adds a separate entry of the source.
Tests used:
HepG2 cells [1] = test: MTT assay of cell proliferation of hepatoma cells; format: cell-based; conditions: synthesized polypeptide 0.1 μM, 1 μM, 10 μM and 100 μM, 48 hr
Source text: (§1) Hepatoma cell line HepG2 was adopted in the experiment. Because SREBP-1c is upstream transcription regulatory factor of FAS, whether there is inhibition of SREBP-1c promoter activity at the molecular level can be used to reflect the transcription state of FAS gene by reporter gene assays. Meanwhile, the detection of FAS promoter activity can directly reflect whether the transcription of FAS is inhibited or not. The nuclear factor κB (nuclear factor KB, NF-κB) is an import transcription factor, and increasing of NF-κB promoter activity indicates the increase of cell proliferation. […]
(2) Culture the cells: Within 12 hr for adhesion of cultured cells, different amount of polypeptides plasmids from Step A (0.25 μg, 0.5 μg and 0.75 μg) or different concentrations of synthesized polypeptides from Example 1 (0.1 μM, 1 μM, 10 μM and 100 μM) were transfected with 8 wells for each concentration, and were incubated for 48 hr in the same condition. 0.3 μg pEGFP-C2 plasmids and 1 μg p-Anti-HBxP1# were cotransfected, and using a fluorescence microscope to check for cells containing the GFP plasmid after 24 hr to make sure the percentage of cells that contain GFP is over 70%; […]
(5) Comparison: Read in an ELISA reader at 490 nm to measure the absorbance for each well. Results were calculated by using Student's t-test.

[2] = Weight of nude mice in the inoculation experiment; format: in vivo
Procedure: (§2) Suspended the HepG2 cells at exponential phase by treating with trypsin, and counted the number of cells to dilute to 1×10^7 cells/ml with physiological saline, and then store in the ice water. 12 Mice used were 4- to 6-week-old BALB/C females, and were randomly divided into two groups: (1) Control group, injected 0.2 ml diluted cells to the armpit of left forelimb for each mouse, and only injected 0.5 ml ddH2O (without polypeptide drugs); (2) experimental group (the treatment dose was 10 mg/kg), injected 0.2 ml diluted cells to the armpit of left forelimb for each mouse, and within 7 days after the injection, tumor volume (V=L×W^2×0.5) reached to 100 mm^3. And then, injected the above mentioned polypeptide drugs (dried polypeptide drug solved in 0.5 ml ddH2O) once in two day, total 10 times, and recorded the tumor volume before injection. Within 24 hr after the last dose, weighted the mice, and killed the mice to weight the tumor tissue, anti-tumor rate was calculated as follow: […]

NF-κB promoter = test: Dual-luciferase reporter gene analysis, NF-κB promoter; format: cell-based; conditions: HepG2 cells; synthesized polypeptide 0.1 μM, 1 μM, 10 μM and 100 μM; 24 hr incubation
Source text: as §1, with “proliferation. Therefore, it can test the effects of the invention polypeptides on the proliferation of HepG2 cell by detection of NF-κB promoter activity and (3-(4,5-dimethylthiazol-2-yl)-2,5-diphenyltetrazolium bromide (MTT).” for “proliferation.”
(7) Immediately put the EP tubes into a Luminometer (manufactured by Turner Biosystems). Within 10 sec after 2 sec balance, measured the luminescence.
(8) Added 100 μl fluorescence bleacher. […]
(9) Measured the luminescence within 10 sec.
The relative activity was the ratio of the value of the first luminescence to the value of the second luminescence.
Results shown are representative of three independent experiments according to Mean±SD, and statistical significance was calculated using Student's t test.

HepG2 cells [3] = test: Inoculation experiment in nude mice (HepG2 tumor growth); format: in vivo; conditions: 10 mg/kg, once in two day, total 10 times
Procedure: as §2

[4] = Polypeptide drugs acute toxicity test; format: in vivo, Kunming white mice; conditions: 1 g/kg tail intravenous injection; observed 24 hr
Procedure: Control group and experimental group contained 10 Kunming white mice, with 5 females and 5 males, respectively. Experimental group injected Anti-FAS-P18 with the concentration of 1 g/kg (2.5 mg dried polypeptide drug solved in 0.125 ml ddH2O) by tail intravenous injection; control group, injected 0.25 ml ddH2O. Consecutively observed the mice for 24 hr after injection.

Substance: Gly-Gly-Cys-Arg-His-Lys-Leu-Val-Cys-Ala-Pro-Ala-Pro-Cys-Asn-Phe-Phe-Thr [Anti-FAS-P18]
- cell proliferation (MTT) (HepG2 cells [1]): inhibits cell proliferation in the HepG2 cells in a dose-dependent manner
- impact on the weight of nude mice ([2]; 10 mg/kg, once in two day, total 10 times): no significantly impact on the weight of nude mice
- Weight (X ± S, g) After dose ([2]; body weight of mice after dose, 10 mg/kg, once in two day, total 10 times): 21.83 ± 0.82 g
- Weight (X ± S, g) Before dose ([2]; body weight of mice before dose, experimental group 10 mg/kg): 15.33 ± 0.75 g
- activity of NF-κB promoter (NF-κB promoter): inhibits the activity of NF-κB promoter in HepG2 cells in a dose-dependent manner
- growth and proliferation of HepG2 cells in nude mice (HepG2 cells [3]): inhibits the growth and proliferation in the HepG2 cells; also recorded: inhibits the growth and proliferation of the HepG2 cells
- Anti-tumor rate (%) (HepG2 cells [3]; from tumor weight vs control): 43.06%
- Tumor Weight (X ± S, g) (HepG2 cells [3]; within 24 hr after the last dose): 0.42 ± 0.09 g
- abnormal behaviors after injection [4]: do not have abnormal behaviors
- changes in weight compared with control group [4]: no abnormal changes in weight compared with control group

From patent US20150087604A1, “ANTI-FATTY ACID SYNTHASE POLYPEPTIDE AND USE THEREOF” (TIANJIN TOPTECH BIO-SCIENCE & TECHNOLOGY CO., LTD., priority 2011, published 2015)
